Measurements published in patent US9493446B2, “Orexin receptor antagonists which are [ortho bi-(hetero-)aryl]-[2-(meta bi-(hetero-)aryl)-pyrrolidin-1-yl]-methanone derivatives” (Actelion Pharmaceuticals Ltd, priority 2012, dated 2016).
Read-outs that look alike come from different tables or passages of the source.

Columns and labels:
orexin-1 = orexin-1 (Homo sapiens (Human), UniProt O43613); assay: Intracellular calcium measurement (FLIPR), CHO cells expressing human orexin-1 receptor, 3 nM orexin-A; type: cell-based; conditions: read-out: IC50 OX1
Method in brief: (§1)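 CHO transfectants were dye-loaded (fluo-4 AM, probenecid) and exposed to antagonist for 120 min ahead of agonist.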

human orexin-2 receptor = human orexin-2 receptor (Homo sapiens (Human), UniProt O43614); assay: Intracellular calcium measurement (FLIPR), CHO cells expressing human orexin-2 receptor, 3 nM orexin-A; type: cell-based; conditions: read-out: IC50 OX2
Method in brief: as §1

[1] = CHO cells expressing human orexin-1 receptor, FLIPR, 3 nM orexin-A, geometric mean if determined several times
[2] = CHO cells expressing human orexin-2 receptor, FLIPR, 3 nM orexin-A, geometric mean if determined several times

human orexin-2 receptor, sequence (O43614 whole entry): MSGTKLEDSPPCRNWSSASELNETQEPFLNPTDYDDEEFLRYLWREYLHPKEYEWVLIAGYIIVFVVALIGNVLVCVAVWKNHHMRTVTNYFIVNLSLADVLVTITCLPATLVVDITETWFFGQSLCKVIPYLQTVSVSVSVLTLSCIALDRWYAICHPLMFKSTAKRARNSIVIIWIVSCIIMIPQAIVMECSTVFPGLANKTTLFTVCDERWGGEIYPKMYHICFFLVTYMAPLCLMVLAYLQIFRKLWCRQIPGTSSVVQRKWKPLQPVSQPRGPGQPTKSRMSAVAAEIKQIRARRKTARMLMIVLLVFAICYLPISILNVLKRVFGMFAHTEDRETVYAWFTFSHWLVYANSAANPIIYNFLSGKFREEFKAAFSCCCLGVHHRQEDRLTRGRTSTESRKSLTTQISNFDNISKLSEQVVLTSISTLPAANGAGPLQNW
orexin-1, sequence (O43613 whole entry): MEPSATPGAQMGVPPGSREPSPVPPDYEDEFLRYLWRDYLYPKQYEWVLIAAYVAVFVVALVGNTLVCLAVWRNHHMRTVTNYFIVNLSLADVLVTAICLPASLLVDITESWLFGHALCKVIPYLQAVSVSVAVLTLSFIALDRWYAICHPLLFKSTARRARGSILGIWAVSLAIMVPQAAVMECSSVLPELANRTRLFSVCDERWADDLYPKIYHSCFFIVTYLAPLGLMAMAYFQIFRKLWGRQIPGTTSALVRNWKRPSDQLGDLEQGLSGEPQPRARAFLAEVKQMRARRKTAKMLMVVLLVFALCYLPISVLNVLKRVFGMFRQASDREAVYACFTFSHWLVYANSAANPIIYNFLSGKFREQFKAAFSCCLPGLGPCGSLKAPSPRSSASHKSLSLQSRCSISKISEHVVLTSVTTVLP

Row | Compound | IC50 (orexin-1; [1]) | IC50 (human orexin-2 receptor; [2]) | IC50 (orexin-1) | IC50 (human orexin-2 receptor)
1 | Cc1ccc(-n2nccn2)c(C(=O)N2CCC[C@H]2c2noc(-c3cccc4c3OCC4)n2)c1 [compound 307, {(S)-2-[5-(2,3-Dihydro-benzofuran-7-yl)-[1,2,4]oxadiazol-3-yl]-pyrrolidin-1-yl}-(5-methyl-2-[1,2,3]triazol-2-yl-phenyl)-methanone] | 130 nM | 3 nM | – | –
2 | Cc1ccc(-n2nccn2)c(C(=O)N2CCC[C@H]2c2nc(-c3cccc4c3ccn4C)no2)c1 [compound 74, {(S)-2-[3-(1-Methyl-1H-indol-4-yl)-[1,2,4]oxadiazol-5-yl]-pyrrolidin-1-yl}-(5-methyl-2-[1,2,3]triazol-2-yl-phenyl)-methanone] | 254 nM | 6 nM | – | –
3 | CCc1ccccc1-c1nnc([C@@H]2CCCN2C(=O)c2cc(C)ccc2-n2nccn2)[nH]1 [compound 512, {(S)-2-[5-(2-Ethyl-phenyl)-4H-[1,2,4]triazol-3-yl]-pyrrolidin-1-yl}-(5-methyl-2-[1,2,3]triazol-2-yl-phenyl)-methanone] | 652 nM | 80 nM | – | –
4 | CCOc1ncccc1-c1nc([C@@H]2CCCN2C(=O)c2cc(Cl)ccc2-n2nccn2)no1 [compound 346] | 23 nM | 2 nM | – | –
5 | Cc1ccc(-n2nccn2)c(C(=O)N2CCC[C@H]2c2noc(-c3cnc4sccn34)n2)c1 [compound 313, [(S)-2-(5-Imidazo[2,1-b]thiazol-5-yl-[1,2,4]oxadiazol-3-yl)-pyrrolidin-1-yl]-(5-methyl-2-[1,2,3]triazol-2-yl-phenyl)-methanone] | 661 nM | 76 nM | – | –
6 | Cc1c(F)cccc1-c1noc([C@@H]2CCCN2C(=O)c2cc(C#N)ccc2-n2nccn2)n1 [compound 277, 3-{(S)-2-[3-(3-Fluoro-2-methyl-phenyl)-[1,2,4]oxadiazol-5-yl]-pyrrolidine-1-carbonyl}-4-[1,2,3]triazol-2-yl-benzonitrile] | 1480 nM | 297 nM | – | –
7 | Cc1c(Cl)cccc1-c1noc([C@@H]2CCCN2C(=O)c2ccc(C(F)(F)F)cc2-n2nccn2)n1 [compound 122] | – | 221 nM | 933 nM | –
8 | Cc1c(Cl)cccc1-c1noc([C@@H]2CCCN2C(=O)c2cccc(Cl)c2-n2nccn2)n1 [compound 296] | 582 nM | – | – | 272 nM
9 | CCc1ccccc1-c1nc([C@@H]2CCCN2C(=O)c2cc(OC)c(C)cc2-n2nccn2)no1 [compound 404, {(S)-2-[5-(2-Ethyl-phenyl)-[1,2,4]oxadiazol-3-yl]-pyrrolidin-1-yl}-(5-methoxy-4-methyl-2-[1,2,3]triazol-2-yl-phenyl)-methanone] | 23 nM | 3 nM | – | –
10 | Cc1ccc(-n2nccn2)c(C(=O)N2CCC[C@H]2c2nc(-c3c[nH]c4ncccc34)no2)c1 [compound 50, (5-Methyl-2-[1,2,3]triazol-2-yl-phenyl)-{(S)-2-[3-(1H-pyrrolo[2,3-b]pyridin-3-yl)-[1,2,4]oxadiazol-5-yl]-pyrrolidin-1-yl}-methanone] | 131 nM | 75 nM | – | –
11 | CCOc1ncccc1-c1noc([C@@H]2CCCN2C(=O)c2cc(C)cc(C)c2-n2nccn2)n1 [compound 209, (3,5-Dimethyl-2-[1,2,3]triazol-2-yl-phenyl)-{(S)-2-[3-(2-ethoxy-pyridin-3-yl)-[1,2,4]oxadiazol-5-yl]-pyrrolidin-1-yl}-methanone] | 56 nM | 21 nM | – | –
12 | COc1cc(C)cc(-c2nc([C@@H]3CCCN3C(=O)c3cc(C)ccc3-n3nccn3)no2)c1 [compound 409, {(S)-2-[5-(3-Methoxy-5-methyl-phenyl)-[1,2,4]oxadiazol-3-yl]-pyrrolidin-1-yl}-(5-methyl-2-[1,2,3]triazol-2-yl-phenyl)-methanone] | 45 nM | 12 nM | – | –
13 | COc1cc(C(=O)N2CCC[C@H]2c2nc(-c3cccc(Cl)c3C)no2)c(-c2ncccn2)cc1C [compound 269] | 177 nM | 12 nM | – | –
14 | CCOc1ncccc1-c1nc([C@@H]2CCCN2C(=O)c2cc(OC)c(Cl)cc2-n2nccn2)no1 [compound 370] | 9 nM | 1 nM | – | –
15 | Cc1ccc(-n2nccn2)c(C(=O)N2CCC[C@H]2c2cc(-c3ccccc3)n[nH]2)c1 [Example 530, (5-Methyl-2-[1,2,3]triazol-2-yl-phenyl)-[(S)-2-(5-phenyl-2H-pyrazol-3-yl)-pyrrolidin-1-yl]-methanone] | 386 nM | 222 nM | – | –
16 | COc1c(F)cccc1-c1nc([C@@H]2CCCN2C(=O)c2cc(Cl)ccc2-n2nccn2)no1 [compound 343] | 46 nM | 3 nM | – | –
17 | COc1cc(C(=O)N2CCC[C@H]2c2nc(-c3ccccc3OC(F)(F)F)no2)c(-n2nccn2)cc1Cl [compound 281] | 42 nM | 17 nM | – | –
18 | COc1ccc(C(=O)N2CCC[C@H]2c2nc(-c3cccc(Cl)c3C)no2)c(-n2nccn2)c1 [compound 118] | – | – | 260 nM | 48 nM

Row | Compound | IC50 (orexin-1; [1]) | IC50 (human orexin-2 receptor; [2]) | IC50 (orexin-1) | IC50 (human orexin-2 receptor)
19 | Cc1ccc(-c2noc([C@@H]3CCCN3C(=O)c3cc(C)ccc3-n3nccn3)n2)c(C)c1 [compound 81, {(S)-2-[3-(2,4-Dimethyl-phenyl)-[1,2,4]oxadiazol-5-yl]-pyrrolidin-1-yl}-(5-methyl-2-[1,2,3]triazol-2-yl-phenyl)-methanone] | 309 nM | 19 nM | – | –
20 | COc1ccccc1-c1noc([C@@H]2CCCN2C(=O)c2ccc(C)cc2-n2nccn2)n1 [compound 229, {(S)-2-[3-(2-Methoxy-phenyl)-[1,2,4]oxadiazol-5-yl]-pyrrolidin-1-yl}-(4-methyl-2-[1,2,3]triazol-2-yl-phenyl)-methanone] | 163 nM | 240 nM | – | –
21 | O=C(c1ccccc1-n1nccn1)N1CCC[C@H]1c1nc(-c2ccccc2Cl)no1 [compound 243] | – | – | 2680 nM | 312 nM
22 | O=C(c1ccoc1)N1CCC[C@H]1c1nc(-c2ccccc2)no1 [Ref 4] | > 8500 nM | > 10000 nM | – | –
23 | COc1ccccc1-c1noc([C@@H]2CCCN2C(=O)c2nc(C)ccc2-n2nccn2)n1 [compound 235, {(S)-2-[3-(2-Methoxy-phenyl)-[1,2,4]oxadiazol-5-yl]-pyrrolidin-1-yl}-(6-methyl-3-[1,2,3]triazol-2-yl-pyridin-2-yl)-methanone] | 361 nM | 992 nM | – | –
24 | COc1c(F)cccc1-c1noc([C@@H]2CCCN2C(=O)c2cc(C)cc(C)c2-n2nccn2)n1 [compound 192, (3,5-Dimethyl-2-[1,2,3]triazol-2-yl-phenyl)-{(S)-2-[3-(3-fluoro-2-methoxy-phenyl)-[1,2,4]oxadiazol-5-yl]-pyrrolidin-1-yl}-methanone] | 135 nM | 15 nM | – | –
25 | Cc1c(F)cccc1-c1noc([C@@H]2CCCN2C(=O)c2cc(F)ccc2-n2nccn2)n1 [compound 250, {(S)-2-[3-(3-Fluoro-2-methyl-phenyl)-[1,2,4]oxadiazol-5-yl]-pyrrolidin-1-yl}-(5-fluoro-2-[1,2,3]triazol-2-yl-phenyl)-methanone] | 489 nM | 38 nM | – | –
26 | O=C(c1cc(Cl)ccc1-n1nccn1)N1CCC[C@H]1c1noc(-c2ccccc2OC(F)(F)F)n1 [compound 377] | 68 nM | 15 nM | – | –
27 | CCOc1ccccc1-c1noc([C@@H]2CCCN2C(=O)c2cc(F)ccc2-n2nccn2)n1 [compound 263, {(S)-2-[3-(2-Ethoxy-phenyl)-[1,2,4]oxadiazol-5-yl]-pyrrolidin-1-yl}-(5-fluoro-2-[1,2,3]triazol-2-yl-phenyl)-methanone] | 505 nM | 105 nM | – | –
28 | Cc1ccc(C(=O)N2CCC[C@H]2c2nc(-c3cccc(F)c3C)no2)c(-n2nccn2)c1 [compound 246, {(S)-2-[3-(3-Fluoro-2-methyl-phenyl)-[1,2,4]oxadiazol-5-yl]-pyrrolidin-1-yl}-(4-methyl-2-[1,2,3]triazol-2-yl-phenyl)-methanone] | 135 nM | 14 nM | – | –
29 | Cc1ncc(C(=O)N2CCC[C@H]2c2nc(-c3cccc(Cl)c3C)no2)c(-c2cccc(Cl)c2)n1 [compound 127] | 581 nM | – | – | 125 nM
30 | COc1cc(C(=O)N2CCC[C@H]2c2nnc(-c3cccc(F)c3OC)[nH]2)c(-n2nccn2)cc1C [compound 473, {(S)-2-[5-(3-Fluoro-2-methoxy-phenyl)-4H-[1,2,4]triazol-3-yl]-pyrrolidin-1-yl}-(5-methoxy-4-methyl-2-[1,2,3]triazol-2-yl-phenyl)-methanone] | 57 nM | 6 nM | – | –
31 | CCOc1ncccc1-c1noc([C@@H]2CCCN2C(=O)c2ccccc2-n2nccn2)n1 [compound 218, {(S)-2-[3-(2-Ethoxy-pyridin-3-yl)-[1,2,4]oxadiazol-5-yl]-pyrrolidin-1-yl}-(2-[1,2,3]triazol-2-yl-phenyl)-methanone] | 331 nM | 99 nM | – | –
32 | O=C(c1ncsc1-c1ccccc1)N1CCC[C@H]1c1nnc(-c2ccccc2OC(F)(F)F)[nH]1 [compound 483, (5-Phenyl-thiazol-4-yl)-{(S)-2-[5-(2-trifluoromethoxy-phenyl)-4H-[1,2,4]triazol-3-yl]-pyrrolidin-1-yl}-methanone] | 1620 nM | 1790 nM | – | –
33 | CCOc1c(F)cccc1-c1noc([C@@H]2CCCN2C(=O)c2cc(OC)c(C)cc2-n2nccn2)n1 [compound 291, {(S)-2-[3-(2-Ethoxy-3-fluoro-phenyl)-[1,2,4]oxadiazol-5-yl]-pyrrolidin-1-yl}-(5-methoxy-4-methyl-2-[1,2,3]triazol-2-yl-phenyl)-methanone] | 21 nM | 5 nM | – | –
34 | Cc1ccc(C)c(-c2nc([C@@H]3CCCN3C(=O)c3ccc(C)cc3-n3nccn3)no2)c1 [compound 393, {(S)-2-[5-(2,5-Dimethyl-phenyl)-[1,2,4]oxadiazol-3-yl]-pyrrolidin-1-yl}-(4-methyl-2-[1,2,3]triazol-2-yl-phenyl)-methanone] | 57 nM | 10 nM | – | –
35 | COc1c(Cl)cccc1-c1nc([C@@H]2CCCN2C(=O)c2ccc(C)cc2-n2nccn2)no1 [compound 354] | 12 nM | 5 nM | – | –
